From patent US20130338142A1, “IMIDAZOPYRAZINE SYK INHIBITORS” (Gilead Connecticut, Inc., priority 2012, published 2013)

Target: Syk (Homo sapiens, UniProt P43405)
Test: High throughput Syk assay (TR-FRET, KinEASE)
Assay type: biochemical
Conditions: Syk TR-FRET assay of Example B2; 3 μM ATP, 0.5 nM Syk
Protocol: The following high throughput Syk assay was performed on the compounds of Table 1 as follows.
Syk activity was measured by detecting phosphorylated peptide substrate formation using antibody against phosphorylated peptide substrate. This is a time-resolved fluorescence resonance energy transfer (TR-FRET) immunoassay, based on the KinEASE Assay (Cisbio). […] Test compounds (in DMSO) were spotted into 384 well plates using a Labcyte® Echo 550 Liquid Handling System prior to addition of Syk enzyme and peptide substrate. Reaction solutions were delivered using a Multi-Flo (Bio-Tek Instruments). The enzyme and peptide solution was incubated with compound for 60 minutes at room temp before the reaction was initiated by the addition of ATP. […] The europium donor was excited using a 340-nm excitation filter with a 30-nm band pass. Energy transfer to the tracer was measured using a filter centered at 665 nm with a 10 nm bandpass. This signal was then referenced to the emission from europium peak, using a 615 nm, 10-nm bandpass filter. The “emission ratio” was calculated as the 665 nm signal divided by the 615 nm signal. Percentage of inhibition was calculated as below:
% Inhibition=100×(RatioSample−Ratio0% Inhibition)/(Ratio100% Inhibition−Ratio0% Inhibition)

Question: How did the IC50 turn out when `COc1cc(Nc2nc(-c3ccc4c(c3)C(=O)NCCO4)cn3ccnc23)ccc1N1CCOCC1` [Compound 2, 7-(8-((3-methoxy-4-morpholinophenyl)amino)imidazo [1,2-a]pyrazin-6-yl)-3,4-dihydrobenzo[f][1,4]oxazepin-5(2H)-one] was run?
Answer: 6 nM

Question: Which IC50 does the source give for `C[C@H](O)[C@H]1CN(c2ccc(Nc3nc(-c4cnc5c(c4)NCCO5)cn4ccnc34)cc2)CCO1` [Compound 5, (S)-1-((R)-4-(4-((6-(2,3-dihydro-1H-pyrido[2,3-b][1,4]oxazin-7-yl)imidazo[1,2-a]pyrazin-8-yl)amino)phenyl)morpholin-2-yl)ethanol] here?
Answer: 6 nM

Question: For `COc1cc(Nc2nc(-c3ccc4c(c3)OCCN4)cn3ccnc23)ccc1N1CCN(C2COC2)CC1` [Compound 6, 6-(3,4-dihydro-2H-benzo[b][1,4]oxazin-7-yl)-N-(3-methoxy-4-(4-(oxetan-3-yl)piperazin-1-yl)phenyl)imidazo[1,2-a]pyrazin-8-amine], which IC50 is on record?
Answer: 7 nM

Question: Which IC50 does the source give for `COc1cc(Nc2nc(-c3ccc4c(c3)NCCO4)cn3ccnc23)ccc1N1CC[C@@H](N)C1` [Compound 9, (R)-N-(4-(3-aminopyrrolidin-1-yl)-3-methoxyphenyl)-6-(3,4-dihydro-2H-benzo[b][1,4]oxazin-6-yl)imidazo[1,2-a]pyrazin-8-amine] here?
Answer: 6 nM

Question: With `COc1cc(Nc2nc(-c3cnc4c(c3)NCCO4)cn3ccnc23)ccc1N1CCN(CC2(C)COC2)CC1` [Compound 28, 6-(2,3-dihydro-1H-pyrido[2,3-b][1,4]oxazin-7-yl)-N-(3-methoxy-4-(4-((3-methyloxetan-3-yl)methyl)piperazin-1-yl)phenyl)imidazo[1,2-a]pyrazin-8-amine] as the molecule, how does the IC50 read?
Answer: 4 nM

Question: How did the IC50 turn out when `COc1cc(Nc2nc(-c3cnc4c(c3)NCCO4)cn3ccnc23)ccc1OC1CCC1` [Compound 29, N-(4-cyclobutoxy-3-methoxyphenyl)-6-(2,3-dihydro-1H-pyrido[2,3-b][1,4]oxazin-7-yl)imidazo[1,2-a]pyrazin-8-amine] was run?
Answer: 7 nM

Question: How did the IC50 turn out when `COc1cc(Nc2nc(-c3cnc4c(c3)NCCO4)cn3ccnc23)ccc1OC1COC1` [Compound 30, 6-(2,3-dihydro-1H-pyrido[2,3-b][1,4]oxazin-7-yl)-N-(3-methoxy-4-(oxetan-3-yloxy)phenyl)imidazo[1,2-a]pyrazin-8-amine] was run?
Answer: 2 nM

Question: How did the IC50 turn out when `CC(=O)N1CCN(c2ccc(Nc3nc(-c4cnc5c(c4)NCCO5)cn4ccnc34)cc2)CC1` [Compound 34] was run?
Answer: 4 nM

Question: `COc1cc(Nc2nc(-c3cnc4c(c3)NCCO4)cn3ccnc23)ccc1N(C)C` [Compound 35, N4-(6-(2,3-dihydro-1H-pyrido[2,3-b][1,4]oxazin-7-yl)imidazo[1,2-a]pyrazin-8-yl)-2-methoxy-N1,N1-dimethylbenzene-1,4-diamine] was tested. Which IC50 did it give?
Answer: 2 nM

Question: For `CC(C)n1cc(Nc2nc(-c3cnc4c(c3)NCCO4)cn3ccnc23)cn1` [Compound 36, 6-(2,3-dihydro-1H-pyrido[2,3-b][1,4]oxazin-7-yl)-N-(1-isopropyl-1H-pyrazol-4-yl)imidazo[1,2-a]pyrazin-8-amine], which IC50 is on record?
Answer: 8 nM

Question: `c1cn2cc(-c3cnc4c(c3)NCCO4)nc(Nc3ccc(C4CCOCC4)cc3)c2n1` [Compound 39, 6-(2,3-dihydro-1H-pyrido[2,3-b][1,4]oxazin-7-yl)-N-(4-(tetrahydro-2H-pyran-4-yl)phenyl)imidazo[1,2-a]pyrazin-8-amine] was tested. Which IC50 did it give?
Answer: 7 nM

Question: `COc1cc(Nc2nc(-c3cnc4c(c3)NCCO4)cn3ccnc23)ccc1-n1ccnc1` [Compound 40, N-(4-(1H-imidazol-1-yl)-3-methoxyphenyl)-6-(2,3-dihydro-1H-pyrido[2,3-b][1,4]oxazin-7-yl)imidazo[1,2-a]pyrazin-8-amine] was tested. Which IC50 did it give?
Answer: 21 nM

Question: How did the IC50 turn out when `c1cn2cc(-c3cnc4c(c3)NCCO4)nc(Nc3ccc4c(c3)OC[C@H]3COCCN43)c2n1` [Compound 43, (R)-N-(6-(2,3-dihydro-1H-pyrido[2,3-b][1,4]oxazin-7-yl)imidazo[1,2-a]pyrazin-8-yl)-2,4,4a,5-tetrahydro-1H-benzo[b][1,4]oxazino[4,3-d][1,4]oxazin-8-amine] was run?
Answer: 9 nM

Question: For `c1cn2cc(-c3cnc4c(c3)NCCO4)nc(Nc3cnn(C4CCOCC4)c3)c2n1` [Compound 44, 6-(2,3-dihydro-1H-pyrido[2,3-b][1,4]oxazin-7-yl)-N-(1-(tetrahydro-2H-pyran-4-yl)-1H-pyrazol-4-yl)imidazo[1,2-a]pyrazin-8-amine], which IC50 is on record?
Answer: 5 nM

Question: Which IC50 does the source give for `COc1cc(Nc2nc(-c3cnc4c(c3)NCCO4)cn3ccnc23)ccc1N1CCC[C@](C)(O)C1` [Compound 52, (S)-1-(4-((6-(2,3-dihydro-1H-pyrido[2,3-b][1,4]oxazin-7-yl)imidazo[1,2-a]pyrazin-8-yl)amino)-2-methoxyphenyl)-3-methylpiperidin-3-ol] here?
Answer: 7 nM

Question: With `CC(C)c1ncc(Nc2nc(-c3cnc4c(c3)NCCO4)cn3ccnc23)s1` [Compound 54, N-(6-(2,3-dihydro-1H-pyrido[2,3-b][1,4]oxazin-7-yl)imidazo[1,2-a]pyrazin-8-yl)-2-isopropylthiazol-5-amine] as the molecule, how does the IC50 read?
Answer: 4 nM

Question: Which IC50 does the source give for `COc1cc(Nc2nc(-c3ccc4c(c3)C(=O)NCCO4)cn3ccnc23)ccc1N1CCN(C2COC2)CC1` [Compound 55, 7-(8-((3-methoxy-4-(4-(oxetan-3-yl)piperazin-1-yl)phenyl)amino)imidazo[1,2-a]pyrazin-6-yl)-3,4-dihydrobenzo[f][1,4]oxazepin-5(2H)-one] here?
Answer: 8 nM

Question: `COc1cc(Nc2nc(-c3cnc4c(c3)NCCS4)cn3ccnc23)ccc1N1CCOCC1` [Compound 58, 6-(2,3-dihydro-1H-pyrido[2,3-b][1,4]thiazin-7-yl)-N-(3-methoxy-4-morpholinophenyl)imidazo[1,2-a]pyrazin-8-amine] was tested. Which IC50 did it give?
Answer: 2 nM

Question: Which IC50 does the source give for `COc1cc(Nc2nc(-c3cnc4c(c3)N(C)C(=O)CO4)cn3ccnc23)ccc1N1CCOCC1` [Compound 60, 7-(8-((3-methoxy-4-morpholinophenyl)amino)imidazo [1,2-a]pyrazin-6-yl)-1-methyl-1H-pyrido[2,3-b][1,4]oxazin-2(3H)-one] here?
Answer: 39 nM

Question: Which IC50 does the source give for `CN(C)C[C@@H]1CN(c2ccc(Nc3nc(-c4cnc5c(c4)NCCO5)cn4ccnc34)cc2)CCO1` [Compound 61, (R)-6-(2,3-dihydro-1H-pyrido[2,3-b][1,4]oxazin-7-yl)-N-(4-(2-((dimethylamino)methyl)morpholino)phenyl)imidazo[1,2-a]pyrazin-8-amine] here?
Answer: 9 nM

Question: For `CC(C)N1CCN(c2ccc(Nc3nc(-c4cnc5c(c4)NCCO5)cn4ccnc34)cc2)CC1` [Compound 62, 6-(2,3-dihydro-1H-pyrido[2,3-b][1,4]oxazin-7-yl)-N-(4-(4-isopropylpiperazin-1-yl)phenyl)imidazo[1,2-a]pyrazin-8-amine], which IC50 is on record?
Answer: 8 nM

Question: How did the IC50 turn out when `c1cn2cc(-c3ccc4c(c3)CNCCO4)nc(Nc3ccc(N4CCOCC4)cc3)c2n1` [Compound 78, N-(4-morpholinophenyl)-6-(2,3,4,5-tetrahydrobenzo[f][1,4]oxazepin-7-yl)imidazo[1,2-a]pyrazin-8-amine] was run?
Answer: 18 nM

Question: With `COc1cc(Nc2nc(-c3cnc4c(c3)NCCO4)cn3ccnc23)ccc1N1CCOC(C)(C)C1` [Compound 81, 6-(2,3-dihydro-1H-pyrido[2,3-b][1,4]oxazin-7-yl)-N-(4-(2,2-dimethylmorpholino)-3-methoxyphenyl)imidazo[1,2-a]pyrazin-8-amine] as the molecule, how does the IC50 read?
Answer: 14 nM

Question: With `c1cn2cc(-c3cnc4c(c3)NCCO4)nc(Nc3ccc(N4CCN5CCOC[C@@H]5C4)cc3)c2n1` [Compound 82, (S)-6-(2,3-dihydro-1H-pyrido[2,3-b][1,4]oxazin-7-yl)-N-(4-(hexahydropyrazino[2,1-c][1,4]oxazin-8(1H)-yl)phenyl)imidazo[1,2-a]pyrazin-8-amine] as the molecule, how does the IC50 read?
Answer: 3 nM

Question: `COc1cc(Nc2nc(-c3cnc4c(c3)NCCO4)cn3ccnc23)ccc1N1CCN(C2COC2)C(C)(C)C1` [Compound 84, 6-(2,3-dihydro-1H-pyrido[2,3-b][1,4]oxazin-7-yl)-N-(4-(3,3-dimethyl-4-(oxetan-3-yl)piperazin-1-yl)-3-methoxyphenyl)imidazo[1,2-a]pyrazin-8-amine] was tested. Which IC50 did it give?
Answer: 10 nM

Question: Which IC50 does the source give for `COc1cc(Nc2nc(-c3cnc4c(c3)NCCO4)cn3ccnc23)ccc1N1CCN(C(=O)[C@H](C)O)CC1` [Compound 85, (S)-1-(4-(4-((6-(2,3-dihydro-1H-pyrido[2,3-b][1,4]oxazin-7-yl)imidazo[1,2-a]pyrazin-8-yl)amino)-2-methoxyphenyl)piperazin-1-yl)-2-hydroxypropan-1-one] here?
Answer: 3 nM

Question: `COc1cc(Nc2nc(-c3cnc4c(c3)NCCO4)cn3ccnc23)ccc1N1CC(C)(O)C1` [Compound 98, 1-(4-((6-(2,3-dihydro-1H-pyrido[2,3-b][1,4]oxazin-7-yl)imidazo[1,2-a]pyrazin-8-yl)amino)-2-methoxyphenyl)-3-methylazetidin-3-ol] was tested. Which IC50 did it give?
Answer: 33 nM

Question: With `COc1cc(Nc2nc(-c3cnc4c(c3)NCCO4)cn3ccnc23)ccc1N1CC2COCC2C1` (stereo not drawn) [Compound 99, 6-(2,3-dihydro-1H-pyrido[2,3-b][1,4]oxazin-7-yl)-N-(3-methoxy-4-(tetrahydro-1H-furo[3,4-c]pyrrol-5(3H)-yl)phenyl)imidazo[1,2-a]pyrazin-8-amine] as the molecule, how does the IC50 read?
Answer: 16 nM

Question: `OC1(c2ccc(Nc3nc(-c4cnc5c(c4)NCCO5)cn4ccnc34)cc2)CCC1` [Compound 101, 1-(4-((6-(2,3-dihydro-1H-pyrido[2,3-b][1,4]oxazin-7-yl)imidazo[1,2-a]pyrazin-8-yl)amino)phenyl)cyclobutanol] was tested. Which IC50 did it give?
Answer: 7 nM

Question: With `OC1(c2ccc(Nc3nc(-c4cnc5c(c4)NCCO5)cn4ccnc34)cc2)COC1` [Compound 102, 3-(4-((6-(2,3-dihydro-1H-pyrido[2,3-b][1,4]oxazin-7-yl)imidazo[1,2-a]pyrazin-8-yl)amino)phenyl)oxetan-3-ol] as the molecule, how does the IC50 read?
Answer: 8 nM
